In patent US10322136B2, “Composition for inhibiting growth or proliferation of chronic myelogenous leukemia cancer stem cells, and screening method therefor” (HIROSHIMA UNIVERSITY, priority 2015, dated 2019):

Key:
[1] = tested on: Foxo3a-/- LT-CML cancer stem cells; assay: Colony-forming capacity of Foxo3a-/- LT-CML cancer stem cells; type: cell-based, mouse; details: cefadroxil treatment in vitro
Description: To establish our Foxo3a-deficient tet-inducible CML mouse model, Foxo3a-deficient mice 42 (C57BL/6; F5) were crossed with Tal-tTA and TRE-BCR-ABL1 transgenic mice that were backcrossed for five generations in the C57BL/6 background, respectively. LT-CML stem cells or LT-normal HSCs (1×10^3/plate) were co-cultured on OP-9 stromal cells for 5 days in the presence of either vehicle (control) or a dipeptide transporter inhibitor cefadroxil (5 μM). Cells were harvested, washed with PBS, and plated in semi-solid methylcellulose medium containing SCF, IL-3, IL-6 and erythropoietin (Methocult GF M3434; Stem Cell Technologies). After growth for 7 days in a humidified atmosphere containing 5% CO2 at 37° C., colony numbers were counted under a light microscope.

[2] = tested on: human CD34+CD38-Lin- CML-LICs; assay: Colony-forming capacity of human CML leukemia-initiating cells; type: cell-based; details: 5 μM cefadroxil, 5 days, three patients
Description: Viable BM MNCs from three human patients with chronic phase CML were purchased from All cells (#06-255, #06-620, and #147742, Alameda, Calif., USA). Documents confirming the informed consent of the patient are available in http://www.veritastk.co.jp/attached/3978/AllCells_BM_Informed_Consent_Form.pdf. These cells were stained with anti-CD34(8G12), anti-CD38(HIT2), anti-CD3(SK7), anti-CD16(3G8), anti-CD19(SJ25C1), anti-CD20(L27), anti-CD14(MpP9), and anti-CD56(NCAM16.2) antibodies (all purchased from BD Biosciences). A mixture of mAbs recognizing CD3, CD16, CD19, CD20, CD14 and CD56 was used to identify Lin^− cells, and CD34^+CD38^−Lin^− cells were purified. To determine the effects of treatment with cefadroxil (5 μM) alone, or with a combination of cefadroxil+IM (1 μM; Axon Medchem) or dasatinib (500 nM; LC laboratories), CD34^+CD38^−Lin^− cells were cultured on OP-9 stromal cells under hypoxic (3% O2) conditions. After harvesting and washing with PBS, the colony-forming ability of the most primitive human CML leukemia-initiating cells (LICs) was evaluated by culture in semi-solid methylcellulose medium containing SCF, GM-CSF, IL-3, IL-6, G-CSF, and erythropoietin (Methocult GF+ H4435; Stem Cell Technologies). After growth for 7 days at 37° C. under hypoxic (3% O2) conditions, colony numbers were counted under a light microscope.

normal HSCs = details: mouse, in vivo
Description: C57BL/6 (CD45.2 for the Ly5 locus) and congenic C57BL/6 (CD45.1 for the Ly5 locus; B6-Ly5.1) mice were purchased from Sankyo-Lab Service (Tsukuba, Japan). Lethally irradiated (9 Gy) C57BL/6 (CD45.2) recipient mice were reconstituted with 1×10^4 normal KLS^+ cells (HSCs) from congenic C57BL/6 (CD45.1) (B6-Ly5.1) mice in competition with 5×10^5 unfractionated BM MNCs derived from C57BL/6 (CD45.2) mice. Transplanted recipients then received vehicle or cefadroxil (36 mgKg^−1day^−1) from day 0 to 8 weeks post transplantation. Reconstitution of donor-derived cells (CD45.1) was monitored at 4 and 8 weeks post transplantation by flow cytometric analysis of peripheral blood mononuclear cells stained with monoclonal antibodies (mAbs) against CD45.2 (104)-FITC and CD45.1 (A20)-PE.

Smad3 Ser208 = assay: Duolink in situ PLA, Smad3 Ser208 phosphorylation in LT-CML cancer stem cells; type: cell-based, mouse; details: 30 min; GlySar or cefadroxil 5 μM; rapamycin 100 nM
Description: (§1) To examine phosphorylation of Smad2, Smad3, p38MAPK, AMPK, and S6 ribosomal protein, and Foxo3a-Smad2 and Foxo3a-Smad3 interactions, Duolink® in situ PLA assay (Olink Bioscience) was used. LT-CML stem cells, ST-CML stem cells, CD48^+, MPP, and KLS^− CML cells that were freshly isolated from CML-affected mice, and LT-normal HSCs that were freshly isolated from healthy control littermates, were immediately fixed with 4% paraformaldehyde for 30 min.
(§2) For in vitro inhibitor experiments, LT-CML stem cells were incubated in 3% O2 at 37° C. for 30 min with vehicle (control; artificial gastric fluid solution (900 ml ddH2O containing 2.0 g of NaCl, 7 ml of conc. HCl and 3.2 g of pepsin)), 5 μM Ly364947 (TGF-β type I receptor kinase Alk5 inhibitor; Merck), 5 μM SB203580 (p38MAPK inhibitor; LC Laboratories), 5 μM GlySar (dipeptide transporter inhibitor; Sigma-Aldrich), 5 μM cefadroxil (dipeptide transporter inhibitor; Sigma-Aldrich), or 100 nM rapamycin (mTORC1 inhibitor; Cell Signaling Technologies). Treated cells were fixed with 4% paraformaldehyde for 30 min, and treated with 0.25% Triton X-100 for 15 min, washed and blocked by incubation in 5% FBS in TBS for 1 hr.
(§3) The proximate binding of these antibodies was then detected using Duolink® in situ PLA system which employs a set of two secondary antibodies in which one is conjugated to a minus strand PLA probe and the other is conjugated to a plus strand PLA probe. Nuclei were stained with DNA marker DAPI (Sigma). Stained slides were mounted using Fluoromount Plus (Diagnostic Biosystems) and fluorescent images were acquired by confocal microscopy (FV10i, Olympus) and Photoshop software (Adobe). The number of fluorescent foci per single cell was quantified using Duolink®Image Tool software (Olink Bioscience).

S6 ribosomal protein = assay: Duolink in situ PLA, S6 ribosomal protein phosphorylation in LT-CML cancer stem cells; type: cell-based, mouse; details: 30 min; GlySar or cefadroxil 5 μM; rapamycin 100 nM
Description: as §1
as §2, with “Treated cells were fixed with 4% paraformaldehyde for 30 min, and treated with 0.25% Triton X-100 for 15 min, washed and blocked by incubation in 5% FBS in TBS for 1 hr.” left out
The proximate binding of these antibodies was then detected using Duolink® in situ PLA system which employs a set of two secondary antibodies in which one is conjugated to a minus strand PLA probe and the other is conjugated to a plus strand PLA probe. […] The number of fluorescent foci per single cell was quantified using Duolink®Image Tool software (Olink Bioscience).

CML-KLS+ cells = assay: Number of GFP/BCR-ABL1+ CML-KLS+ cells in BM of treated CML-affected mice; type: in vivo, mouse; details: daily for 30 days post transplantation
Description: Briefly, CML-affected mice received by oral gavage for 30 days post BM transplantation as described above. The number of GFP/BCR-ABL1+CML-KLS+ cells among total GFP/BCR-ABL1+CML cells isolated from BM MNCs acquired from the two hindlimbs of treated CML-affected mice was assessed by flow cytometry. Freshly purified GFP/BCR-ABL1^+CML-KLS^+ cells (3×10^4) were then serially transplanted into a second set of lethally irradiated congenic recipient mice along with 5×10^5 normal BM MNCs derived from C57BL/6 mice. Mouse survival and disease recurrence were monitored for 90 days.

AMPK = assay: Duolink in situ PLA, AMPK phosphorylation in LT-CML cancer stem cells; type: cell-based, mouse; details: LT-CML cancer stem cells in vitro
Description: as §1, §2, §3

Raptor-Ser792 = Raptor-Ser792 phosphorylation in LT-CML cancer stem cells; type: cell-based, mouse; details: LT-CML cancer stem cells in vitro

## CC1=C(C(=O)O)N2C(=O)[C@@H](NC(=O)[C@H](N)c3ccc(O)cc3)[C@H]2SC1 [cefadroxil]
[1]
  number of colonies formed by Foxo3a-/- LT-CML cancer stem cells: not altered
[2]
  colony-forming capacity of human CML-LIC samples: suppressed
Normal HSCs
  frequency of donor-derived CD45.1 MNCs in peripheral blood: no increase
Smad3 Ser208
  Smad3 Ser208 phosphorylation: blocked
S6 ribosomal protein
  phosphorylation of S6: decreased phosphorylation
CML-KLS+ cells
  number of CML-KLS+ cells among GFP/BCR-ABL1+ CML cells from BM: significantly decreased
AMPK
  phosphorylation of AMPK: increased
Raptor-Ser792
  Raptor-Ser792 phosphorylation: did not promote
